# In patent US20180051257A1, “METHODS FOR GENERATING ALVEOLAR TYPE II CELLS” (priority 2016, published 2018):
# Tests used:
# RB20 mESCs [1] = test: Induction of mESCs to definitive endoderm (DE)-like cells by IDE2: RT-PCR of DE markers and phase contrast morphology; assay type: cell-based, mouse
# Description: (§1) To produce endoderm (DE) like cells, RB20 mESCs (embryonic stem cells) were maintained in adherent culture conditions on gelatin-coated dishes, prior to induction of differentiation. As depicted in FIG. 2, an overview of the mESCs maintenance and differentiation protocol. Differentiation of the cells was initiated via a reduction in concentration of KoSR; after three days, cells were induced by IDE2 for six days. In the next step, DE cells differentiated into alveolar type II-like (AT II-like) cells using seven different combinations of three inductive factors: FGF2 (F), hydrocortisone (H) and A549 conditioned medium (CM) during 9 days. The mESCs were cultured in media with reducing concentration of serum for 3 days, for example, 20%, 10% and 5% fetal bovine serum (FBS) in day one, two and three, respectively. Then, it was induced by 200 nM small inducing molecule IDE2 for 6 days. At the end of this first step, DE like cells were characterized for the expression of two DE markers, Sox17 and Foxa2.
# The morphology of the said markers in the DE-like cells was assayed by phase contrast microscopy.
# RB20 mESCs [2] = test: Foxa2 protein expression in mESC-derived DE cells by flow cytometric analysis; assay type: cell-based, mouse; details: mESC-derived DE cells vs mESCs
# Description: as §1
# Lack of expression of Foxa2 could be seen in mESC cells.
# [3] = 200 nM IDE2, day 6, compared to mESCs negative control group, P<0.05
smiles,measurement,setting,value
O=C(O)CCCCCC(=O)NN=C1CCCC1 [IDE2],expression level of Foxa2 (RT-PCR),RB20 mESCs [1]; [3],increased expression levels
same,expression level of Sox 17 (RT-PCR),RB20 mESCs [1]; [3],increased expression levels
same,cell morphology in phase contrast micrograph,RB20 mESCs [1]; day 6 of IDE2 induction,epithelial morphology characteristic of DE cells
same,numbers of cells that expressed DE-specific marker Foxa2 at the protein level,RB20 mESCs [2],increase in numbers of cells
